Where “and” joins values, the source holds several entries; their conditions need not be identical. Equal entries are not always repeated. Inconclusive results and toxic doses are left out.
Tested on: BDF1 mice, P388 leukemia (terephthalanilide-resistant), survival T/C
Experiment: NCI In Vivo Anticancer Drug Screen. Data for tumor model P388 Leukemia resistant to A Terephthalanilide; NSC 38280 (intraperitoneal) in B6D2F1 (BDF1) mice
Details: endpoint: median survival time, higher = longer survival
Protocol: The antitumor activity of compounds was measured in mice bearing transplantable tumors. Survival or tumor size were measured and the results are expressed as the measurement made in the treated group (T) divided by the measurement made in the vehicle treated control group (C). The tumor model used in this assay is P388 Leukemia resistant to A Terephthalanilide; NSC 38280 (intraperitoneal) in B6D2F1 (BDF1) mice

[1] = dose: 10.0 mg/kg/injection, schedule: Q01DX010 (ip), vehicle: saline
[2] = dose: 20.0 mg/kg/injection, schedule: Q01DX010 (ip), vehicle: saline
[3] = dose: 40.0 mg/kg/injection, schedule: Q01DX010 (ip), vehicle: saline
[4] = dose: 6.0 mg/kg/injection, schedule: Q01DX010 (ip), vehicle: saline
[5] = dose: 25.0 mg/kg/injection, schedule: Q01DX010 (ip), vehicle: saline
[6] = dose: 8.0 mg/kg/injection, schedule: Q01DX010 (ip), vehicle: saline
[7] = dose: 18.0 mg/kg/injection, schedule: Q01DX010 (ip), vehicle: saline
[8] = dose: 5.0 mg/kg/injection, schedule: Q01DX010 (ip), vehicle: saline
[9] = dose: 62.5 mg/kg/injection, schedule: Q01DX010 (ip), vehicle: saline
[10] = dose: 125.0 mg/kg/injection, schedule: Q01DX010 (ip), vehicle: saline
[11] = dose: 250.0 mg/kg/injection, schedule: Q01DX010 (ip), vehicle: saline
[12] = dose: 500.0 mg/kg/injection, schedule: Q01DX010 (ip), vehicle: saline

Question: How did the T/C (dose: 0.12 mg/kg/injection, schedule: Q01DX Z (sc), vehicle: steriod suspending solution) turn out when `C[C@]12C=CC(=O)C=C1CC[C@@H]1[C@@H]2C(=O)C[C@@]2(C)[C@H]1CC[C@]2(O)C(=O)CO` was run?
Answer: 100 % of control

Question: What about the T/C (dose: 12.5 mg/kg/injection, schedule: Q01DX Z (sc), vehicle: steriod suspending solution) of the same molecule?
Answer: 104 % of control

Question: And the T/C (dose: 25.0 mg/kg/injection, schedule: Q01DX010 (sc), vehicle: steriod suspending solution)?
Answer: 105 % of control

Question: And the T/C (dose: 25.0 mg/kg/injection, schedule: Q01DX Z (sc), vehicle: steriod suspending solution)?
Answer: 100 % of control and 109 % of control

Question: What about the T/C (dose: 50.0 mg/kg/injection, schedule: Q01DX Z (sc), vehicle: steriod suspending solution) of the same molecule?
Answer: 100 % of control

Question: And the T/C (dose: 100.0 mg/kg/injection, schedule: Q01DX010 (sc), vehicle: steriod suspending solution)?
Answer: 88 % of control

Question: What about the T/C (dose: 200.0 mg/kg/injection, schedule: Q01DX010 (sc), vehicle: steriod suspending solution) of the same molecule?
Answer: 88 % of control

Question: Which T/C [1] does the source give for `CC1CCOS(=O)O1` (stereo not given) here?
Answer: 100 % of control

Question: What about the T/C [2] of the same molecule?
Answer: 95 % of control

Question: And the T/C [3]?
Answer: 100 % of control

Question: What does the source list for `S=P(N1CC1)(N1CC1)N1CC1`?
Answer: T/C (dose: 0.75 mg/kg/injection, schedule: Q01DX010 (ip), vehicle: saline): 112 % of control; T/C [4]: 162 % of control

Question: Which results are given for `CSc1ncnc2nc[nH]c12`?
Answer: T/C [5]: 104 % of control and 105 % of control; T/C (dose: 50.0 mg/kg/injection, schedule: Q01DX010 (ip), vehicle: saline): 100 % of control and 104 % of control; T/C (dose: 100.0 mg/kg/injection, schedule: Q01DX010 (ip), vehicle: saline): 100 % of control; T/C (dose: 200.0 mg/kg/injection, schedule: Q01DX010 (ip), vehicle: saline): 105 % of control and 109 % of control

Question: For `O=C(Nc1ccc(C2=NCCN2)cc1)c1ccc(C(=O)Nc2ccc(C3=NCCN3)cc2)c([N+](=O)[O-])c1`, which T/C [4] is on record?
Answer: 110 % of control and 122 % of control

Question: What about the T/C [6] of the same molecule?
Answer: 110 % of control and 122 % of control

Question: And the T/C (dose: 12.0 mg/kg/injection, schedule: Q01DX010 (ip), vehicle: saline)?
Answer: 122 % of control

Question: What about the T/C [7] of the same molecule?
Answer: 88 % of control and 105 % of control

Question: For `S=P(N1CCOCC1)(N1CC1)N1CC1`, which T/C (dose: 2.5 mg/kg/injection, schedule: Q01DX010 (ip), vehicle: saline) is on record?
Answer: 105 % of control and 111 % of control

Question: And the T/C [8]?
Answer: 94 % of control and 105 % of control

Question: For `O=C(Nc1ccc(C2=NCCN2)cc1)c1ccc(NC(=O)c2ccc(C3=NCCN3)cc2)cc1`, which T/C [7] is on record?
Answer: 100 % of control

Question: What about the T/C (dose: 27.0 mg/kg/injection, schedule: Q01DX010 (ip), vehicle: saline) of the same molecule?
Answer: 100 % of control

Question: What about the T/C [3] of the same molecule?
Answer: 100 % of control

Question: And the T/C (dose: 60.0 mg/kg/injection, schedule: Q01DX010 (ip), vehicle: saline)?
Answer: 100 % of control

Question: What does the source list for `CN(N=O)C(N)=O`?
Answer: T/C [8]: 113 % of control; T/C [2]: 118 % of control

Question: How did the T/C [8] turn out when `C[C@@H]1C[C@@H]([C@H](O)CC2CC(=O)NC(=O)C2)C(=O)[C@@H](C)C1` was run?
Answer: 93 % of control and 100 % of control

Question: What about the T/C [1] of the same molecule?
Answer: 100 % of control

Question: And the T/C [2]?
Answer: 100 % of control

Question: And the T/C [3]?
Answer: 112 % of control

Question: With `N=[N+]=CC(=O)OCC(N)C(=O)O` (stereo not given) as the molecule, how does the T/C (dose: 12.5 mg/kg/injection, schedule: Q01DX010 (ip), vehicle: saline) read?
Answer: 115 % of control and 116 % of control

Question: What about the T/C [5] of the same molecule?
Answer: 88 % of control

Question: `OCC1OC(n2cnc3c(Cl)ncnc32)C(O)C1O` (stereo not given) was tested. Which T/C [9] did it give?
Answer: 94 % of control

Question: And the T/C [10]?
Answer: 100 % of control

Question: What about the T/C [11] of the same molecule?
Answer: 90 % of control and 94 % of control

Question: And the T/C [12]?
Answer: 90 % of control and 111 % of control

Question: Which results are given for `CC(CCC(C)OS(C)(=O)=O)OS(C)(=O)=O` (stereo not given)?
Answer: T/C (dose: 2.0 mg/kg/injection, schedule: Q01DX010 (ip), vehicle: saline): 90 % of control and 95 % of control; T/C (dose: 4.0 mg/kg/injection, schedule: Q01DX010 (ip), vehicle: saline): 95 % of control and 100 % of control; T/C [6]: 100 % of control; T/C (dose: 16.0 mg/kg/injection, schedule: Q01DX010 (ip), vehicle: saline): 86 % of control and 100 % of control

Question: Which T/C [9] does the source give for `O=c1cn[nH]c(=O)[nH]1` here?
Answer: 105 % of control

Question: What about the T/C [10] of the same molecule?
Answer: 111 % of control

Question: What about the T/C [11] of the same molecule?
Answer: 90 % of control and 105 % of control

Question: What about the T/C [12] of the same molecule?
Answer: 88 % of control

Question: Which T/C (dose: 62.5 micrograms/kg/injection, schedule: Q01DX010 (ip), vehicle: saline) does the source give for `O[C@H](CN1CC1)[C@@H](O)CN1CC1` here?
Answer: 120 % of control

Question: And the T/C (dose: 125.0 micrograms/kg/injection, schedule: Q01DX010 (ip), vehicle: saline)?
Answer: 200 % of control

Question: And the T/C (dose: 250.0 micrograms/kg/injection, schedule: Q01DX010 (ip), vehicle: saline)?
Answer: 175 % of control

Question: What about the T/C (dose: 500.0 micrograms/kg/injection, schedule: Q01DX010 (ip), vehicle: saline) of the same molecule?
Answer: 120 % of control

Source: PubChem BioAssay AID338 (DTP/NCI, 2004)
